Among the data in patent US10894798B2, “Substituted dihydropyrrolopyrazole derivative” (UBE INDUSTRIES, LTD., priority 2015, dated 2021) are Ki and GI50 values, retold here.

pKi: −log10 of the molar value. Some results are limits rather than exact numbers.

One assay deals with T1, CDK7 (Homo sapiens, UniProt P50613).
T1 construct: purchased Carna Biosciences, Inc. 04-108
In words: CDK7 enzyme inhibition test. It counts as biochemical. Conditions: [γ-33P]ATP, MBP substrate, 60 min preincubation at 25°C; Ki=IC50/(1+S/Km); read-out: Ki value of CDK7 inhibitory activity. On the procedure:
(§1) The preparation of a buffer solution was performed by mixing a N-2-hydroxyethylpiperazine-N′-2-ethanesulfonic acid buffer solution (HEPES buffer solution) (pH 7.4), dithiothreitol (DTT), Triton X-100, and magnesium chloride (MgCl2). A 500 μM [γ-^33P]ATP solution was used by diluting a 10 mM ATP solution and a commercially available [γ-^33P]ATP solution (manufactured by PerkinElmer, Inc., Code No. NEG-302H) with the buffer solution. A CDK7 solution was used by diluting commercially available CDK7 (manufactured by Carna Biosciences, Inc., Catalog No. 04-108) with the buffer solution. A substrate solution was used by diluting myelin basic protein (MBP) with the buffer solution. As for the preparation of a reaction solution, the buffer solution, the CDK7 solution, and the substrate solution were mixed at 4° C. to obtain a reaction solution.
CDK7 enzyme reaction was performed by adding 5 μL of a test compound solution prepared with 10% DMSO/90% injectable distilled water, and 40 μL of the reaction solution to a 1.5 mL microtube at 4° C. and preincubating the microtube at 25° C. for 60 minutes in a water bath incubator. Subsequently, reaction was performed at 30° C. for 20 minutes by adding 5 μL of the 500 μM [γ-^33P]ATP solution. After the reaction, a 10% aqueous trichloroacetic acid (TCA) solution was added to each microtube while cooled to 4° C., and mixed in a vortex mixer to terminate the reaction. The resultant was left standing at 4° C. for 10 minutes and then centrifuged, and the supernatant was discarded. Next, a 2% aqueous trichloroacetic acid (TCA) solution was added thereto, mixed in a vortex mixer, and then centrifuged, and the supernatant was discarded. This washing operation was performed twice. After the washing, precipitates were dissolved in a 1 N aqueous sodium hydroxide (NaOH) solution, and the energy quantity (radioactivity) of the reaction product was measured with a liquid scintillation counter.
The calculation of the inhibitory activity of the test compound against CDK7 was performed as a test compound concentration inhibiting 50% of the amount of ^33P bound to MBP (IC50 value) by using EXSUS (version 8.1.0, manufactured by CAC Exicare Corp.).
(§2) The calculation of a Ki value was performed according to the following calculation expression wherein S represents the concentration of ATP contained in the reaction solution, and Km represents a Michaelis-Menten constant: Ki=IC50/(1+S/Km)

The subject of assay [1] is human large intestine cancer cell line (HCT-116). In words: Human large intestine cancer (HCT-116) cell growth inhibition test. The note with it: HCT-116, 72 h, culture for 3 days, sulforhodamine B, read-out: GI50 value, HCT-116 cell growth inhibition. It counts as cell-based. As to the method:
The measurement of a human large intestine cancer cell growth inhibitory effect was carried out by modifying the method of Simak et al. (Cancer Research, 69, 6208 (2009)).
A human large intestine cancer cell line (HCT-116, obtained from DS Pharma Biomedical Co., Ltd.) was cultured in a McCoy's 5A medium (manufactured by Thermo Fisher Scientific, Inc.) containing 10% fetal bovine serum (FBS) (manufactured by Thermo Fisher Scientific, Inc.) and 1% penicillin/streptomycin/amphotericin B (manufactured by Thermo Fisher Scientific, Inc.) and inoculated at 0.5 to 2.0×10^3 cells/well in a 96-well plate. After overnight culture in a carbon dioxide incubator, the medium was replaced with a fresh medium on the next day, and a test compound dissolved in DMSO (final DMSO concentration: 0.1%) was added thereto and left standing in a carbon dioxide incubator. After culture for 3 days, the absorbance thereof was measured by using In Vitro Toxicology Assay Kit Sulforhodamine B based (manufactured by Sigma-Aldrich Co. LLC.).
The rate of inhibition of cell growth at each concentration was calculated from the test compound concentration and the absorbance of sulforhodamine B, and the concentration of the test compound necessary for inhibiting 50% of cell growth (GI50 value) was calculated by using EXSUS (version 8.1.0, manufactured by CAC Exicare Corp.).

The target in another assay is T2, CDK2 (Homo sapiens, UniProt P24941).
T2 construct: purchased Invitrogen Corp. PV3267
In words: CDK2 enzyme inhibition test. It counts as biochemical. Conditions: [γ-33P]ATP, MBP substrate; Ki=IC50/(1+S/Km); read-out: Ki value of CDK2 inhibitory activity. On the procedure: as §1, with “by Perkin Elmer,” for “by PerkinElmer,”, “A CDK2” for “A CDK7”, “available CDK2” for “available CDK7”, “by Invitrogen Corp.,” for “by Carna Biosciences, Inc.,”, “No. PV3267)” for “No. 04-108)”, “the 500 μM [γ-^33P]ATP solution, the CDK2” for “the CDK7”
(§3) CDK2 enzyme reaction was performed by adding 5 μL of a test compound solution prepared with 10% DMSO/90% injectable distilled water, and 45 μL of the reaction solution in a 1.5 mL microtube at 4° C. and reacting in the microtube at 30° C. for 20 minutes in a water bath incubator. After the reaction, a 10% aqueous trichloroacetic acid (TCA) solution was added to each microtube while cooled to 4° C., and mixed in a vortex mixer to terminate the reaction. The resultant was left standing at 4° C. for 10 minutes and then centrifuged, and the supernatant was discarded. Next, a 2% aqueous trichloroacetic acid (TCA) solution was added thereto, mixed in vortex mixer, and then centrifuged, and the supernatant was discarded. This washing operation was performed twice. After the washing, precipitates were dissolved in a 1 N aqueous sodium hydroxide (NaOH) solution, and the energy quantity (radioactivity) of the reaction product was measured with a liquid scintillation counter.
The calculation of the inhibitory activity of the test compound against CDK2 was performed as a test compound concentration inhibiting 50% of the amount of ^33P bound to MBP (IC50 value) by using EXSUS (version 8.1.0, manufactured by CAC Exicare Corp.).
as §2

The target of the next assay is T3, PLK1 (Homo sapiens, UniProt P53350).
T3 construct: purchased Carna Biosciences, Inc. 05-157
The assay is described as follows: PLK1 enzyme (polo-like kinase) inhibition test. Type of assay: biochemical. The note with it: [γ-33P]ATP, casein substrate; Ki=IC50/(1+S/Km); read-out: Ki value of PLK1 inhibitory activity. As to the method:
The preparation of a buffer solution was performed by mixing a 3-morpholinopropanesulfonic acid buffer solution (MOPS buffer solution) (pH 7.0), dithiothreitol (DTT), and magnesium acetate (Mg(CH3COO)2). A 1 mM [γ-^33P]ATP solution was used by diluting a 10 mM ATP solution and a commercially available [γ-^33P]ATP solution (manufactured by Perkin Elmer, Inc., Code No. NEG-302H) with the buffer solution. A PLK1 solution was used by diluting commercially available PLK1 (manufactured by Carna Biosciences, Inc., Catalog No. 05-157) with the buffer solution. A substrate solution was used by diluting casein with the buffer solution. As for the preparation of a reaction solution, the buffer solution, the 500 μM [γ-^33P]ATP solution, the PLK1 solution, and the substrate solution were mixed at 4° C. to obtain a reaction solution.
as §3, with “PLK1 enzyme reaction” for “CDK2 enzyme reaction”, “mixed in a vortex mixer,” for “mixed in vortex mixer,”
The calculation of the inhibitory activity of the test compound against PLK1 was performed as a test compound concentration inhibiting 50% of the amount of ^33P bound to casein (IC50 value) by using EXSUS (version 8.1.0, manufactured by CAC Exicare Corp.).
as §2

T1 sequence (P50613 whole entry): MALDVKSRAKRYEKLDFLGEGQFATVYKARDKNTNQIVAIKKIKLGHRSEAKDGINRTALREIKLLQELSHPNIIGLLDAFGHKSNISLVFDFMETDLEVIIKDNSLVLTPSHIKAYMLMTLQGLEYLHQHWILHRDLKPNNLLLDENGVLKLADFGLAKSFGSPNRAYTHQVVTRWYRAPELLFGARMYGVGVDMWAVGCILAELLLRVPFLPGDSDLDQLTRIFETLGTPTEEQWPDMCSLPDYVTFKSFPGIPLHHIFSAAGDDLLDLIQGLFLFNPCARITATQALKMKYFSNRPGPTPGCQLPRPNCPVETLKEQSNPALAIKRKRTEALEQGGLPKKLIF
T1 sequence (P51946 whole entry partner): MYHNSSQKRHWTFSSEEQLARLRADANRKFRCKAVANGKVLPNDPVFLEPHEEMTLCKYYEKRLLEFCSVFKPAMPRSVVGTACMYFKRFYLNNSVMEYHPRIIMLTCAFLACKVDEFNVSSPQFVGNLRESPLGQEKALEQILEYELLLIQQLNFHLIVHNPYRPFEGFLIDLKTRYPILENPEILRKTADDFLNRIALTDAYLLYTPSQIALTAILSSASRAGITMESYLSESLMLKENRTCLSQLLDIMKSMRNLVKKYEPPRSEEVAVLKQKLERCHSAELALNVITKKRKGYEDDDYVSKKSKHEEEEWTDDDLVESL
T1 sequence (P51948 whole entry partner): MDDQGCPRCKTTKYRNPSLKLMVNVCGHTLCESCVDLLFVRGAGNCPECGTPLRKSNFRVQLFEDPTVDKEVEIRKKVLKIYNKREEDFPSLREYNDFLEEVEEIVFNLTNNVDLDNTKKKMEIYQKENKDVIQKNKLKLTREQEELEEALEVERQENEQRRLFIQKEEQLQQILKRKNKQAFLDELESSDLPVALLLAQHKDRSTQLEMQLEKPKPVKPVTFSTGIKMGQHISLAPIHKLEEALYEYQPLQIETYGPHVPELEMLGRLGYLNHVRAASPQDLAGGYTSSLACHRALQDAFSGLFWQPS
T3 sequence (P53350 whole entry): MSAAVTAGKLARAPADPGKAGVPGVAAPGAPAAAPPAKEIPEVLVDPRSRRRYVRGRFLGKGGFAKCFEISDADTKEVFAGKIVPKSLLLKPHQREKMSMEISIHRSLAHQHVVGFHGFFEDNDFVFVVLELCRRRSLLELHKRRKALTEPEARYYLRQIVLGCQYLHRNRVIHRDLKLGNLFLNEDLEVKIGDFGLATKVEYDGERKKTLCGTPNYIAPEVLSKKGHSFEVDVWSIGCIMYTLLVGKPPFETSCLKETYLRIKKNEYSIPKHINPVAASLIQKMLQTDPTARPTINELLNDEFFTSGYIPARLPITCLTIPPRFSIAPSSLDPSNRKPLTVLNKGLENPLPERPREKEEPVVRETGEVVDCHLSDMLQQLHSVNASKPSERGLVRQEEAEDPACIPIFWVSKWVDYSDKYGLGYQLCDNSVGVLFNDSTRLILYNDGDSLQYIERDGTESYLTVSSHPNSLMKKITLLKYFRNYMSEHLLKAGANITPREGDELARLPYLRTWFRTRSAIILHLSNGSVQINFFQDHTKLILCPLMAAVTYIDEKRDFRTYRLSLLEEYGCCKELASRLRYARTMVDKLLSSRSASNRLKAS

Take `CC1(C)c2[nH]nc(NC(=O)C3([Si](C)(C)C)CCC3)c2CN1C(=O)Nc1ccccc1Cl` [IV-9, N-(2-Chlorophenyl)-6,6-dimethyl-3-[1-(trimethylsilyl)cyclobutanecarboxamido]-4,6-dihydropyrrolo[3,4-c]pyrazole-5(1H)-carboxamide]: the pKi was not below 7.30 on CDK7 and not above 6.00 on CDK2. Besides, the GI50 in assay [1] was not above 100 nM.
Turning to `COc1ccccc1NC(=O)N1Cc2c(NC(=O)C3([Si](C)(C)C)CCC3)n[nH]c2C1(C)C` [IV-75, N-(2-Methoxyphenyl)-6,6-dimethyl-3-[1-(trimethylsilyl)cyclobutanecarboxamido]-4,6-dihydropyrrolo[3,4-c]pyrazole-5(1H)-carboxamide], the pKi was not below 7.30 on CDK7 and not above 6.00 at CDK2. Besides, in assay [1], the 50% growth inhibitory concentration (GI50) was not above 100 nM.
On to `CC1(C)c2[nH]nc(NC(=O)C3([Si](C)(C)C)CCC3)c2CN1C(=O)Nc1cccc(F)c1F` [IV-99, N-(2,3-Difluorophenyl)-6,6-dimethyl-3-[1-(trimethylsilyl)cyclobutanecarboxamido]-4,6-dihydropyrrolo[3,4-c]pyrazole-5(1H)-carboxamide], for which, at CDK7, the pKi was not below 7.30. Besides, in assay [1], the GI50 is not above 100 nM.
On the same counts, the results for `CC1(C)c2[nH]nc(NC(=O)C3([Si](C)(C)C)CCC3)c2CN1C(=O)Nc1ccc(F)cc1F` [IV-101, N-(2,4-Difluorophenyl)-6,6-dimethyl-3-[1-(trimethylsilyl)cyclobutanecarboxamido]-4,6-dihydropyrrolo[3,4-c]pyrazole-5(1H)-carboxamide] are not below 7.30 and not above 100 nM.
As to `CC1(C)c2[nH]nc(NC(=O)C3([Si](C)(C)C)CCC3)c2CN1C(=O)Nc1cc(F)ccc1F` [IV-103, N-(2,5-Difluorophenyl)-6,6-dimethyl-3-[1-(trimethylsilyl)cyclobutanecarboxamido]-4,6-dihydropyrrolo[3,4-c]pyrazole-5(1H)-carboxamide], the pKi at CDK7 was not below 7.30. Besides, in assay [1], the concentration for 50% growth inhibition (GI50) is not above 100 nM.
For `CC1(C)c2[nH]nc(NC(=O)C3([Si](C)(C)C)CCC3)c2CN1C(=O)Nc1cc(Cl)ccc1F` [IV-111, N-(5-Chloro-2-fluorophenyl)-6,6-dimethyl-3-[1-(trimethylsilyl)cyclobutanecarboxamido]-4,6-dihydropyrrolo[3,4-c]pyrazole-5 (1H)-carboxamide], the pKi at CDK7 was not below 7.30. Also, in assay [1], the GI50 was not above 100 nM.
On the same counts, the results for `Cc1ccc(NC(=O)N2Cc3c(NC(=O)C4([Si](C)(C)C)CCC4)n[nH]c3C2(C)C)c(F)c1` [IV-125, N-(2-Fluoro-4-methylphenyl)-6,6-dimethyl-3-[1-(trimethylsilyl)cyclobutanecarboxamido]-4,6-dihydropyrrolo[3,4-c]pyrazole-5 (1H)-carboxamide] are not below 7.30 and not above 100 nM.
Consider `CC1(C)c2[nH]nc(NC(=O)C3([Si](C)(C)C)CCC3)c2CN1C(=O)Nc1c(F)cccc1C(F)(F)F` [IV-153, N-[2-Fluoro-6-(trifluoromethyl)phenyl]-6,6-dimethyl-3-[1-(trimethylsilyl)cyclobutanecarboxamido]-4,6-dihydropyrrolo[3,4-c]pyrazole-5(1H)-carboxamide], for which the figures for the pKi on CDK7 and on PLK1 were not below 7.30 and not above 5.30, respectively. For the same molecule, in assay [1], the GI50 was not above 100 nM.
With `Cc1cccc(NC(=O)N2Cc3c(NC(=O)C4([Si](C)(C)C)CCC4)n[nH]c3C2(C)C)c1C` [IV-375, N-(2,3-Dimethylphenyl)-6,6-dimethyl-3-[1-(trimethylsilyl)cyclobutanecarboxamido]-4,6-dihydropyrrolo[3,4-c]pyrazole-5(1H)-carboxamide], the pKi at CDK7 is not below 7.30. Also, in assay [1], the GI50 was not above 100 nM.
`CC1(C)c2[nH]nc(NC(=O)C3([Si](C)(C)C)CCC3)c2CN1C(=O)Nc1c(F)cc(F)cc1F` [IV-599, 6,6-Dimethyl-N-(2,4,6-trifluorophenyl)-3-[1-(trimethylsilyl)cyclobutanecarboxamido]-4,6-dihydropyrrolo[3,4-c]pyrazole-5(1H)-carboxamide]: the pKi on CDK7 was not below 7.30. In assay [1], the GI50 is not above 100 nM.
For the molecule `Cc1nscc1NC(=O)N1Cc2c(NC(=O)C3([Si](C)(C)C)CCC3)n[nH]c2C1(C)C` [IV-1035, 6,6-Dimethyl-N-(3-methylisothiazol-4-yl)-3-[1-(trimethylsilyl)cyclobutanecarboxamido]-4,6-dihydropyrrolo[3,4-c]pyrazole-5 (1H)-carboxamide], the pKi at CDK7 is not below 7.30. In addition, the GI50 in assay [1] was not above 100 nM.

One may read the pKi as the Ki on a negative log10 scale, so that one unit is a factor of ten. By GI50 is commonly meant the concentration giving 50% growth inhibition.
